pKi: −log10 of the molar value. Non-standard residues stand in square brackets, D forms with d. Residues, ends and D or L forms follow the SMILES beside them. *: point of attachment. NMeF = CN[C@@H](Cc1ccccc1)C(=O)O; Cha = N[C@@H](CC1CCCCC1)C(=O)O; dCha = N[C@H](CC1CCCCC1)C(=O)O; X4 = NCCCN(CCc1ccccc1)*; X1 = N#CCCN*
Target: T1, C5a Receptor (Homo sapiens, UniProt P21730)
T1 construct: 2.5-25 μg/mL of purified PMNL membrane fragments; from tissue; host or cells: polymorphonuclear leukocyte (PMNL) membrane fragments
T1 sequence (P21730 1-350): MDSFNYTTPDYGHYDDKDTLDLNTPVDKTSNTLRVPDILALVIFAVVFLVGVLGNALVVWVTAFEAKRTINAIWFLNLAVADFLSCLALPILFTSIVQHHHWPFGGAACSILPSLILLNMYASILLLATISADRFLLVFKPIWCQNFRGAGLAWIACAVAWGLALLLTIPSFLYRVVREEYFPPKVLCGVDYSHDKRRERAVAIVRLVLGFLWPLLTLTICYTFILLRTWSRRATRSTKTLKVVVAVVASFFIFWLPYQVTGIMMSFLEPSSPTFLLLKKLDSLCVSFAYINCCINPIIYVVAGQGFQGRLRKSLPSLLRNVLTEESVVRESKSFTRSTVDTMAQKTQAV
Experiment: Anaphylatoxin receptor binding Ki determination (inhibition of 125I-C5a binding to PMNL membrane fragments)
Conditions: 0.03-1 nM 125I-C5a, 2.5-25 μg/mL purified PMNL membrane fragments, filtration; read-out: Ki (In vitro C5a Receptor Binding Potency)
Protocol: Specific inhibition of C5 a binding activity of representative compounds of the present invention was measured using 0.03-1 nM ^125 I-C5 a with 2.5-25 μg/mL of purified PMNL membrane fragments (Borregaard, N.; Heiple, J. M.; Simons, E. R.; and Clark, R. A. J. Cell. Biol. 1983, 97, 52-61.). Free and membrane-bound ligand were separated by filtration.

SMILES | pKi
N=C(N)NCCC[C@@H](NC[C@H](Cc1ccccc1)NC(=O)[C@@H](CC1CCCCC1)NC(=O)[C@@H]1CCCN1C(=O)[C@H](CCCCN)NC(=O)CCCCc1ccccc1)C(=O)O [Example 202, {5-Phenylvaleryl}-Lysyl-Prolyl -{(2R)-2-Amino-3-cyclohexylpropanoyl}-Phenylalanyl-.PSI.(CH2 NH)-DArginyl-OH] | 4.28
CN[C@@H](Cc1ccccc1)C(=O)N[C@@H](CCCCN)C(=O)N1CCC[C@H]1C(=O)N[C@H](CC1CCCCC1)C(=O)N[C@@H](CC1CCCCC1)C(=O)NCCC#N [Example 223, (N-Methyl)Phenylalanyl-Lysyl-Prolyl-{(2R)-2-Amino-3-cyclohexylpropanoyl}-{(2S)-2-Amino-3-cyclohexylpropanoyl}-N-(2-Cyanoethyl)amide] (H-[NMeF]KP[dCha][Cha]-X1) | 5.92
CN[C@@H](Cc1ccccc1)C(=O)N[C@@H](CCCCN)C(=O)N1CCC[C@H]1C(=O)N[C@H](CC1CCCCC1)C(=O)N(CCCN)CCc1ccccc1 [Example 225, (N-Methyl)Phenylalanyl-Lysyl-Prolyl-{(2R)-2-Amino-3-cyclohexylpropanoyl}-N-3-Aminopropyl-N-2-Phenethylamide] (H-[NMeF]KP[dCha]-X4) | 4.34

From US5190922A (priority 1991, dated 1993)
